Test results from patent US20260262643A1, “HERBICIDAL BENZOXAZINES” (FMC CORPORATION, priority 2022, published 2026).

Legend:
barnyardgrass [1] = test: Test C preemergence; type: in vivo, Echinochloa crusgalli
Outline: (§1)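 Soil-applied (pre) and foliar (post, 1–2 leaf, 2–10 cm) sprays; surfactant-containing non-phytotoxic solvent vehicle; loam/sand substrate. Readout: visual % control at 10 d, greenhouse, versus untreated.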

blackgrass [2] = test: Test C preemergence; type: in vivo, Alopecurus myosuroides
Outline: as §1

corn [3] = test: Test C preemergence; type: in vivo, Zea mays
Outline: as §1

green foxtail [4] = test: Test C preemergence; type: in vivo, Setaria viridis
Outline: as §1

kochia [5] = test: Test C preemergence; type: in vivo, Bassia scoparia
Outline: as §1

pigweed, palmer [6] = test: Test C preemergence; type: in vivo, Amaranthus palmeri
Outline: as §1

ragweed [7] = test: Test C preemergence; type: in vivo, Ambrosia artemisiifolia
Outline: as §1

ryegrass, Italian [8] = test: Test C preemergence; type: in vivo, Lolium multiflorum
Outline: as §1

soybean [9] = test: Test C preemergence; type: in vivo, Glycine max
Outline: as §1

wheat [10] = test: Test C preemergence; type: in vivo, Triticum aestivum
Outline: as §1

barnyardgrass [11] = test: Test C postemergence; type: in vivo, Echinochloa crusgalli; settings: 10 days, 0 to 100 scale (0 no effect, 100 complete control)
Outline: as §1

blackgrass [12] = test: Test C postemergence; type: in vivo, Alopecurus myosuroides; settings: 10 days, 0 to 100 scale (0 no effect, 100 complete control)
Outline: as §1

corn [13] = test: Test C postemergence; type: in vivo, Zea mays; settings: 10 days, 0 to 100 scale (0 no effect, 100 complete control)
Outline: as §1

green foxtail [14] = test: Test C postemergence; type: in vivo, Setaria viridis; settings: 10 days, 0 to 100 scale (0 no effect, 100 complete control)
Outline: as §1

kochia [15] = test: Test C postemergence; type: in vivo, Bassia scoparia; settings: 10 days, 0 to 100 scale (0 no effect, 100 complete control)
Outline: as §1

oat, wild = test: Test C postemergence; type: in vivo, Avena fatua; settings: 10 days, 0 to 100 scale (0 no effect, 100 complete control)
Outline: as §1

pigweed, palmer [16] = test: Test C postemergence; type: in vivo, Amaranthus palmeri; settings: 10 days, 0 to 100 scale (0 no effect, 100 complete control)
Outline: as §1

ragweed [17] = test: Test C postemergence; type: in vivo, Ambrosia artemisiifolia; settings: 10 days, 0 to 100 scale (0 no effect, 100 complete control)
Outline: as §1

ryegrass, Italian [18] = test: Test C postemergence; type: in vivo, Lolium multiflorum; settings: 10 days, 0 to 100 scale (0 no effect, 100 complete control)
Outline: as §1

soybean [19] = test: Test C postemergence; type: in vivo, Glycine max; settings: 10 days, 0 to 100 scale (0 no effect, 100 complete control)
Outline: as §1

wheat [20] = test: Test C postemergence; type: in vivo, Triticum aestivum; settings: 10 days, 0 to 100 scale (0 no effect, 100 complete control)
Outline: as §1

galium = test: Test C postemergence; type: in vivo, Galium aparine; settings: 10 days, 0 to 100 scale (0 no effect, 100 complete control)
Outline: as §1

horseweed = test: Test C postemergence; type: in vivo, Erigeron canadensis; settings: 10 days, 0 to 100 scale (0 no effect, 100 complete control)
Outline: as §1

barnyardgrass [21] = test: Test D flooded paddy test; type: in vivo, Echinochloa crus-galli; settings: 250 g ai/ha, applied to paddy water, visual rating after 13 to 14 days, scale 0 to 100 (0 no effect, 100 complete control)
Outline: (§2)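 At the 2-leaf stage, floodwater 3 cm deep received the test compound; that depth persisted throughout. Plants scored visually 13 to 14 days on, 0 (no effect) to 100 (complete control), dash indicating no result.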

ducksalad = test: Test D flooded paddy test; type: in vivo, Heteranthera limosa; settings: 250 g ai/ha, applied to paddy water, visual rating after 13 to 14 days, scale 0 to 100 (0 no effect, 100 complete control)
Outline: as §2

rice = test: Test D flooded paddy test; type: in vivo, Oryza sativa; settings: 250 g ai/ha, applied to paddy water, visual rating after 13 to 14 days, scale 0 to 100 (0 no effect, 100 complete control)
Outline: as §2

sedge, umbrella = test: Test D flooded paddy test; type: in vivo, Cyperus difformis; settings: 250 g ai/ha, applied to paddy water, visual rating after 13 to 14 days, scale 0 to 100 (0 no effect, 100 complete control)
Outline: as §2

[22] = 500 g ai/ha, preemergence, 0 to 100 scale (0 no effect, 100 complete control)
[23] = Preemergence, 125 g ai/ha, 0 to 100 scale, 0 no effect, 100 complete control

**Q.** Which results are given for `Cc1ccc(-n2cnc(C(C)O)n2)cc1C(=O)N1CC(C)Oc2c(Cl)cccc21` (mixture of isomers) [Compound 358]?
**A.** Barnyardgrass plant response rating (barnyardgrass [1]; [22]): 100; Plant response rating, Barnyardgrass (barnyardgrass [1]; [23]): 100; Blackgrass plant response rating (blackgrass [2]; [22]): 90; Plant response rating, Blackgrass (blackgrass [2]; [23]): 80; Corn plant response rating (corn [3]; [22]): 70; Plant response rating, Corn (corn [3]; [23]): 50; Foxtail, Green plant response rating (green foxtail [4]; [22]): 100; Plant response rating, Foxtail, Green (green foxtail [4]; [23]): 100; Kochia plant response rating (kochia [5]; [22]): 100; Plant response rating, Kochia (kochia [5]; [23]): 20; Pigweed, Palmer plant response rating (pigweed, palmer [6]; [22]): 100; Plant response rating, Pigweed, Palmer (pigweed, palmer [6]; [23]): 100; Ragweed plant response rating (ragweed [7]; [22]): 90; Plant response rating, Ragweed (ragweed [7]; [23]): 70; Ryegrass, Italian plant response rating (ryegrass, Italian [8]; [22]): 100; Plant response rating, Ryegrass, Italian (ryegrass, Italian [8]; [23]): 90; Soybean plant response rating (soybean [9]; [22]): 100; Plant response rating, Soybean (soybean [9]; [23]): 100; Wheat plant response rating (wheat [10]; [22]): 90; Plant response rating, Wheat (wheat [10]; [23]): 50; Plant response rating, Barnyardgrass (barnyardgrass [11]; 500 g ai/ha, postemergence): 100; Plant response rating, Barnyardgrass (barnyardgrass [11]; Postemergence, 125 g ai/ha): 90; Plant response rating, Blackgrass (blackgrass [12]; 500 g ai/ha, postemergence): 100; Plant response rating, Blackgrass (blackgrass [12]; Postemergence, 125 g ai/ha): 90; Plant response rating, Corn (corn [13]; 500 g ai/ha, postemergence): 90; Plant response rating, Corn (corn [13]; Postemergence, 125 g ai/ha): 90; Plant response rating, Foxtail, Green (green foxtail [14]; 500 g ai/ha, postemergence): 90; Plant response rating, Foxtail, Green (green foxtail [14]; Postemergence, 125 g ai/ha): 90; Plant response rating, Kochia (kochia [15]; 500 g ai/ha, postemergence): 70; Plant response rating, Kochia (kochia [15]; Postemergence, 125 g ai/ha): 40; Plant response rating, Oat, Wild (oat, wild; 500 g ai/ha, postemergence): 80; Plant response rating, Oat, Wild (oat, wild; Postemergence, 125 g ai/ha): 30; Plant response rating, Pigweed, Palmer (pigweed, palmer [16]; 500 g ai/ha, postemergence): 80; Plant response rating, Pigweed, Palmer (pigweed, palmer [16]; Postemergence, 125 g ai/ha): 50; Plant response rating, Ragweed (ragweed [17]; 500 g ai/ha, postemergence): 80; Plant response rating, Ragweed (ragweed [17]; Postemergence, 125 g ai/ha): 50; Plant response rating, Ryegrass, Italian (ryegrass, Italian [18]; 500 g ai/ha, postemergence): 100; Plant response rating, Ryegrass, Italian (ryegrass, Italian [18]; Postemergence, 125 g ai/ha): 90; Plant response rating, Soybean (soybean [19]; 500 g ai/ha, postemergence): 100; Plant response rating, Soybean (soybean [19]; Postemergence, 125 g ai/ha): 100; Plant response rating, Wheat (wheat [20]; 500 g ai/ha, postemergence): 80; Plant response rating, Wheat (wheat [20]; Postemergence, 125 g ai/ha): 50; Plant response rating, Galium (galium; 500 g ai/ha, postemergence): 100; Plant response rating, Galium (galium; Postemergence, 125 g ai/ha): 100; Plant response rating, Horseweed (horseweed; 500 g ai/ha, postemergence): 90; Plant response rating, Horseweed (horseweed; Postemergence, 125 g ai/ha): 70; Plant response rating, Barnyardgrass (Flood) (barnyardgrass [21]): 30; Plant response rating, Ducksalad (Flood) (ducksalad): 95; Plant response rating, Rice (Flood) (rice): 15; Plant response rating, Sedge, Umbrella (Flood) (sedge, umbrella): 90
